Source: US5548064A, “Vitamin B12 conjugates with EPO, analogues thereof and pharmaceutical compositions” (Biotech Australia Pty Limited, priority 1993, dated 1996)

These molecules were tested against intrinsic factor (IF) (Homo sapiens, UniProt P27352) (assay: Relative intrinsic factor (IF) affinity of eVB12 analogues and complexes). Conditions: % of native eVB12.
Assay type: binding
Source text: IF Affinity is expressed as a percentage of the affinity of the eVB12 derivative relative to native, unmodified VB12.

Chain of intrinsic factor (IF) (P27352 19-417, species assumed): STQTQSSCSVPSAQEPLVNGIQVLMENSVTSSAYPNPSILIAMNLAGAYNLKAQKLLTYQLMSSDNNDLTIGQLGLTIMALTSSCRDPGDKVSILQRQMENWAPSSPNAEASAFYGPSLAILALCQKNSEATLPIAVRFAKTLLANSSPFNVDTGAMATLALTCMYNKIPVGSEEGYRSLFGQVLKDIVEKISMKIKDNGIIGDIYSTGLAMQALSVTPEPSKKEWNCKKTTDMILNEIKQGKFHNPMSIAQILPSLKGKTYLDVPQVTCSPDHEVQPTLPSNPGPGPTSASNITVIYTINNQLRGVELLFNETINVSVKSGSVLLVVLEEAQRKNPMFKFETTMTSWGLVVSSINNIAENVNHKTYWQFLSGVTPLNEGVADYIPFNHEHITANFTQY

IF Affinity | Molecule
2-3% | GCSF-dithioproplonamido[12-aminododecylamido]-eVB12 (conjugate, UniProt P09919 31-207, looked up, disulphide-linked aminododecyl vitamin B12 conjugate, GCSF linked by disulphide at Cys-17 to DTP-aminododecyl-eVB12 (section 1.7)) Granulocyte …: TPLGPASSLPQSFLLKCLEQVRKIQGDGAALQEKLVSECATYKLCHPEELVLLGHSLGIPWAPLSSCPSQALQLAGCLSQLHSGLFLYQGLLQALEGISPELGPTLDTLQLDVADFATTIWQQMEELGMAPALQPTQGAMPAFASAFQRRAGGVLVASHLQSFLEVSYRVLRHLAQP

Same assay, conditions: percentage of the affinity of the eVB12 derivative relative to native, unmodified VB12

Molecule | IF Affinity [%]
hydrazidyl-eVB12 | 100
6-aminohexylamido-eVB12 | 91
dithioproplonamido[6-aminohexylamido]-eVB12 | 11
eVB12 carboxylate | 35
dithlopropionamido[2-aminoethylamido]-eVB12 | 6
12-aminododecyl-suberyl-hexylamido-eVB12 | 82
12-aminododecylamido-eVB12 | 74
2-aminoethylamido-eVB12 | 48

Results, then the molecule that gave them:

IF Affinity [%] | Molecule
11 | EPO-acyl[adipyldlhydrazidyl]-eVB12
44 | adipyldihydrazidyl-eVB12
7 | dithiopropionamido[6-aminohexylamido]-eVB12
6 | EPO-acylhydrazidyl-eVB12
3 | GCSF-dithioproplonamido[12-aminododecylamido]-eVB12 (conjugate, UniProt P09919 31-207, looked up, disulphide-linked aminododecyl vitamin B12 conjugate, GCSF linked by disulphide at Cys-17 to DTP-aminododecyl-eVB12 (section 1.7)) Granulocyte …: TPLGPASSLPQSFLLKCLEQVRKIQGDGAALQEKLVSECATYKLCHPEELVLLGHSLGIPWAPLSSCPSQALQLAGCLSQLHSGLFLYQGLLQALEGISPELGPTLDTLQLDVADFATTIWQQMEELGMAPALQPTQGAMPAFASAFQRRAGGVLVASHLQSFLEVSYRVLRHLAQP
10 | GCSF-acylhydrazidyl-eVB12 (conjugate, UniProt P09919 31-207, looked up, hydrazide vitamin B12 conjugate, EDAC-mediated conjugate of hydrazido-eVB12 with carboxyl groups of GCSF (section 1.11)) Granulocyte …: TPLGPASSLPQSFLLKCLEQVRKIQGDGAALQEKLVSECATYKLCHPEELVLLGHSLGIPWAPLSSCPSQALQLAGCLSQLHSGLFLYQGLLQALEGISPELGPTLDTLQLDVADFATTIWQQMEELGMAPALQPTQGAMPAFASAFQRRAGGVLVASHLQSFLEVSYRVLRHLAQP
7 | GCSF-acyl[adipyldihydrazidyl]-eVB12 (conjugate, UniProt P09919 31-207, looked up, adipyl-dihydrazide vitamin B12 conjugate, EDAC-mediated conjugate of adipylhydrazido-eVB12 with GCSF (section 1.12)) Granulocyte …: TPLGPASSLPQSFLLKCLEQVRKIQGDGAALQEKLVSECATYKLCHPEELVLLGHSLGIPWAPLSSCPSQALQLAGCLSQLHSGLFLYQGLLQALEGISPELGPTLDTLQLDVADFATTIWQQMEELGMAPALQPTQGAMPAFASAFQRRAGGVLVASHLQSFLEVSYRVLRHLAQP
28 | GCSF-diothloproplonamido12-aminododecyl-suberyl-hexylamido-eVB12 (conjugate, UniProt P09919 31-207, looked up, disulphide-linked dodecylsuberylhexyl vitamin B12 conjugate, GCSF linked by disulphide to DTP-dodecylsuberylhexyl-eVB12 (section 1.9)) Granulocyte …: TPLGPASSLPQSFLLKCLEQVRKIQGDGAALQEKLVSECATYKLCHPEELVLLGHSLGIPWAPLSSCPSQALQLAGCLSQLHSGLFLYQGLLQALEGISPELGPTLDTLQLDVADFATTIWQQMEELGMAPALQPTQGAMPAFASAFQRRAGGVLVASHLQSFLEVSYRVLRHLAQP
